A word on the MIC: it is the least concentration at which growth counts as inhibited. Higher therefore signals a less susceptible organism.

From DBAASP come the findings set out here.

Among the test systems are Escherichia coli ML-35; Candida albicans; Escherichia coli; Staphylococcus aureus; Bacillus subtilis.
Test in all cases: ≥ marks a high value that may be exact or a test limit, other limits are often not marked, values filed in µg/mL are converted to µM
In assay [1] the test system is Pseudomonas aeruginosa CMCCB 10104.
Assay [2] has as its system Escherichia coli ATCC 25922.
Assay [3] has as its system Candida albicans ATCC 2002.
For assay [4], the system named is Staphylococcus aureus ATCC 25923.
Assay [5] concerns Pseudomonas aeruginosa PAO1.
The test system of assay [6] is Staphylococcus aureus USA 300.
Assay [7] deals with Klebsiella pneumoniae ATCC 13883.
The subject of assay [8] is Bacillus subtilis ATCC 23857.
The test system of assay [9] is Staphylococcus aureus ATCC 29213.
In assay [10] the test system is Staphylococcus epidermidis ATCC 12228.
Assay [11] relates to Salmonella enterica subsp. enterica serovar Pullorum C79-13.
The test system of assay [12] is Enterococcus faecalis ATCC 29212.
Assay [13] has as its system Salmonella enterica subsp. enterica serovar Typhimurium C77-31.

Values after ≈ are worked out from the molar mass of the structure shown.

As for `CC[C@H](C)[C@H](NC(=O)CN)C(=O)N[C@@H](Cc1ccccc1)C(=O)N[C@@H](CO)C(=O)N[C@@H](CCCCN)C(=O)N[C@H](C(=O)N[C@@H](CO)C(=O)NCC(=O)N[C@@H](CCCCN)C(=O)N[C@@H](C)C(=O)N[C@H](C(=O)N[C@@H](CCCCN)C(=O)N[C@@H](CC(N)=O)C(=O)N[C@@H](CC(C)C)C(=O)N[C@@H](Cc1ccccc1)C(=O)N[C@H](C(=O)N[C@@H](CCCCN)C(=O)NCC(=O)N[C@@H](C)C(=O)N[C@@H](CCCCN)C(=O)N[C@@H](CC(N)=O)C(=O)N[C@H](C(=O)NCC(=O)N[C@@H](CCCCN)C(=O)N[C@@H](CCC(=O)O)C(=O)N[C@H](C(=O)NCC(=O)N[C@@H](CCSC)C(=O)N[C@@H](CC(=O)O)C(=O)N[C@H](C(=O)N[C@H](C(=O)N[C@@H](CCCN=C(N)N)C(=O)N[C@H](C(=O)NCC(=O)N[C@H](C(=O)N[C@@H](CC(=O)O)C(=O)N[C@H](C(=O)N[C@H](C(=O)NCC(=O)N[C@H]1CSSC[C@@H](C(=O)O)NC(=O)[C@H](CCC(=O)O)NC(=O)CNC(=O)[C@H](CCCCN)NC(=O)[C@H]([C@@H](C)CC)NC(=O)[C@H](CCCCN)NC1=O)C(C)C)C(C)C)[C@@H](C)CC)[C@@H](C)O)C(C)C)C(C)C)C(C)C)C(C)C)[C@@H](C)CC)[C@@H](C)CC)[C@@H](C)CC` [GIFSKISGKAIKNLFIKGAKNVGKEVGMDVVRTGIDVVGCKIKGEC], the minimal inhibitory concentration (MIC) was determined as 3.66 µM (≈ 17.6 µg/mL) in assay [1], 1.83 µM (≈ 8.8 µg/mL) in assay [2], 1.83 µM (≈ 8.8 µg/mL) in [3] and 0.915 µM (≈ 4.4 µg/mL) in assay [4].
Take `CC(C)C[C@H](NC(=O)[C@H](CC(C)C)NC(=O)CNC(=O)[C@H](CC(C)C)NC(=O)[C@H](CC(C)C)NC(=O)[C@H](CO)NC(=O)[C@H](CC(C)C)NC(=O)[C@H](CC(C)C)NC(=O)[C@H](CO)NC(=O)[C@H](CC(C)C)NC(=O)[C@H](CC(C)C)NC(=O)[C@H](CCCCN)NC(=O)CN)C(N)=O` [GKLLSLLSLLGLL]: the MIC is > 25 µM in assay [5], 3.1 µM (≈ 4.15 µg/mL) in [6], > 25 µM in assay [2] and 25 µM (≈ 33.5 µg/mL) in assay [7].
`CC(C)C[C@H](NC(=O)[C@H](CC(C)C)NC(=O)[C@H](CCCCN)NC(=O)CNC(=O)[C@H](CC(C)C)NC(=O)[C@H](CC(C)C)NC(=O)[C@H](CO)NC(=O)[C@H](CC(C)C)NC(=O)[C@H](CC(C)C)NC(=O)[C@H](CO)NC(=O)[C@H](C)NC(=O)[C@H](CC(C)C)NC(=O)CN)C(N)=O` [GLASLLSLLGKLL]: the minimal inhibitory concentration (MIC) in assay [5] is > 25 µM; in [6], 0.78 µM (≈ 1.01 µg/mL); in assay [2] it was > 25 µM; in assay [7], 25 µM (≈ 32.4 µg/mL).
Turning to `CC(C)C[C@H](NC(=O)[C@H](CC(C)C)NC(=O)[C@H](CCCCN)NC(=O)CNC(=O)[C@H](C)NC(=O)[C@H](CC(C)C)NC(=O)[C@H](CO)NC(=O)[C@H](CC(C)C)NC(=O)[C@H](CC(C)C)NC(=O)[C@H](CO)NC(=O)[C@H](CC(C)C)NC(=O)[C@H](CC(C)C)NC(=O)CN)C(N)=O` [GLLSLLSLAGKLL], the minimum inhibitory concentration (MIC) in [5] amounted to 12.5 µM (≈ 16.2 µg/mL); in assay [6] it was 0.78 µM (≈ 1.01 µg/mL); in assay [2], 3.1 µM (≈ 4.02 µg/mL); in [7], 3.1 µM (≈ 4.02 µg/mL).
With `CC(C)C[C@H](NC(=O)[C@H](CC(C)C)NC(=O)[C@H](CC(N)=O)NC(=O)[C@H](CCCCN)NC(=O)[C@@H](NC(=O)[C@@H](NC(=O)[C@H](C)NC(=O)[C@H](CC(C)C)NC(=O)[C@@H](NC(=O)CN)C(C)C)[C@@H](C)O)C(C)C)C(=O)N[C@@H](CC(N)=O)C(=O)NCC(=O)N[C@H](C(=O)NCC(=O)N[C@@H](CC(=O)O)C(=O)NCC(=O)N[C@@H](C)C(=O)N[C@@H](C)C(=O)N[C@@H](CCC(N)=O)C(=O)N[C@@H](CO)C(=O)N[C@H](C(=O)N[C@@H](CC(C)C)C(=O)N[C@@H](CCCCN)C(=O)N[C@H](C(=O)N[C@@H](CC(C)C)C(=O)N[C@@H](CO)C(=O)N[C@H]1CSSC[C@@H](C(=O)O)NC(=O)[C@H](CC(=O)O)NC(=O)[C@H](CC(N)=O)NC(=O)[C@H](CO)NC(=O)[C@H](CC(C)C)NC(=O)[C@H](CCCCN)NC1=O)[C@@H](C)O)C(C)C)[C@@H](C)O` [GVLATVKNLLNGTGDGAAQSVLKTLSCKLSNDC], the minimum inhibitory concentration (MIC) worked out at 4.8 µM (≈ 15.8 µg/mL) in assay [1], 2.4 µM (≈ 7.9 µg/mL) in assay [2], 1.22 µM (≈ 4 µg/mL) in assay [3] and 1.22 µM (≈ 4 µg/mL) in assay [4].
Turning to `CC[C@H](C)[C@H](N)C(=O)N[C@@H](CC(C)C)C(=O)NCC(=O)N[C@H](C(=O)N[C@H](C(=O)N[C@@H](CC(C)C)C(=O)NCC(=O)N1CCC[C@H]1C(=O)N[C@@H](CC(C)C)C(=O)N[C@@H](CCCCN)C(=O)NCC(=O)N[C@@H](CC(C)C)C(N)=O)[C@@H](C)CC)[C@@H](C)O` [ILGTILGPLKGL], the MIC in the assay with Escherichia coli ML-35 is ≥ 256 µM; in assay [8], ≥ 256 µM; in assay [2] it was > 256 µM; in assay [9] it was > 256 µM; in assay [10], > 256 µM.
On to `CC[C@H](C)[C@H](N)C(=O)N[C@@H](CC(C)C)C(=O)NCC(=O)N[C@H](C(=O)N[C@H](C(=O)N[C@@H](CC(C)C)C(=O)N1CCC[C@H]1C(=O)N[C@@H](CC(C)C)C(=O)N[C@@H](CC(C)C)C(=O)N[C@@H](CCCCN)C(=O)NCC(=O)N[C@@H](CC(C)C)C(N)=O)[C@@H](C)CC)[C@@H](C)O` [ILGTILPLLKGL], for which the MIC in the assay on Escherichia coli ML-35 was ≥ 256 µM; in assay [8], ≥ 256 µM; in assay [2], > 256 µM; in [9] it was > 256 µM; in assay [10] it was > 256 µM.
On to `CC(C)C[C@H](NC(=O)[C@@H](NC(=O)[C@@H](NC(=O)[C@@H](N)CC(C)C)C(C)C)[C@@H](C)O)C(=O)N[C@H](C(=O)N[C@@H](Cc1ccccc1)C(=O)N[C@H](C(=O)O)C(C)C)C(C)C` [LVTLVFV], for which the MIC in assay [11] was ≥ 128 µM; in [2] it was > 128 µM; in assay [9], > 128 µM; in assay [12] it was > 128 µM; in assay [10] it was > 128 µM; in assay [13], ≥ 128 µM.
Consider `CSCC[C@H](NC(=O)[C@H](CCC(=O)O)NC(=O)[C@H](CS)NC(=O)[C@H](C)NC(=O)[C@@H](NC(=O)CNC(=O)[C@H](C)NC(=O)[C@@H](NC(=O)[C@H](Cc1ccccc1)NC(=O)[C@@H]1CCCN1C(=O)[C@H](CC(C)C)NC(=O)[C@@H](N)CCC(N)=O)C(C)C)C(C)C)C(=O)N[C@@H](CS)C(=O)N[C@@H](CCC(N)=O)C(=O)N[C@@H](CS)C(=O)N[C@H](C(=O)N[C@@H](Cc1ccc(O)cc1)C(=O)N[C@H]1CSSC[C@@H](C(=O)O)NC(=O)[C@H](CCCCN)NC(=O)[C@H](CCCCN)NC(=O)[C@H](CO)NC(=O)[C@H](C)NC(=O)[C@H](C)NC1=O)C(C)C` [QLPFVAGVACEMCQCVYCAASKKC], for which the MIC in assay [1] was determined as 2.23 µM (≈ 5.7 µg/mL); in [2] it was 2.23 µM (≈ 5.7 µg/mL); in assay [3] it was 4.47 µM (≈ 11.4 µg/mL); in assay [4], 4.47 µM (≈ 11.4 µg/mL).
Regarding `CC[C@H](C)[C@H](NC(=O)[C@@H](N)C(C)C)C(=O)N1CCC[C@H]1C(=O)N[C@@H](Cc1ccccc1)C(=O)N[C@H](C(=O)N[C@@H](C)C(=O)N[C@@H](CO)C(=O)N[C@H](C(=O)N[C@@H](C)C(=O)N[C@@H](C)C(=O)N[C@@H](CCC(=O)O)C(=O)N[C@@H](CCSC)C(=O)N[C@@H](CCSC)C(=O)N[C@@H](CCC(N)=O)C(=O)N[C@@H](Cc1cnc[nH]1)C(=O)N[C@H](C(=O)N[C@@H](Cc1ccc(O)cc1)C(=O)N[C@H]1CSSC[C@@H](C(=O)O)NC(=O)[C@H](CCCCN)NC(=O)[C@H](CCCCN)NC(=O)[C@H](CO)NC(=O)[C@H](C)NC(=O)[C@H](C)NC1=O)C(C)C)C(C)C)C(C)C` [VIPFVASVAAEMMQHVYCAASKKC], the minimum inhibitory concentration (MIC) in [1] was found to be 2.01 µM (≈ 5.2 µg/mL); with Candida albicans, 0.677 µM (≈ 1.75 µg/mL); against Escherichia coli, 1.35 µM (≈ 3.5 µg/mL); against Staphylococcus aureus it was 1.35 µM (≈ 3.5 µg/mL); in assay [2], 4.02 µM (≈ 10.4 µg/mL); in assay [3], 4.02 µM (≈ 10.4 µg/mL). For the same compound, the MIC was found to be 8.05 µM (≈ 20.8 µg/mL) in assay [4] and 0.677 µM (≈ 1.75 µg/mL) against Bacillus subtilis.
